Experimental data reported in patent US8946426B2, “Substituted bicyclic heterocyclic compounds as gamma secretase modulators” (Janssen Pharmaceuticals, Inc., priority 2009, dated 2015).

Key:
Assay type in all cases: cell-based
Aβ42 [1] = test: Method 2: Aβ42 Alphalisa in supernatant of SKNBE2 cells carrying APP 695-wild type (Table 7c); conditions: Method 2, Alphalisa, overnight incubation
Procedure: (§1) Screening was carried out using SKNBE2 cells carrying the APP 695-wild type, grown in Dulbecco's Modified Eagle's Medium/Nutrient mixture F-12 (DMEM/NUT-mix F-12) (HAM) provided by Invitrogen (cat no. 10371-029) containing 5% Serum/Fe supplemented with 1% non-essential amino acids, 1-glutamine 2 mM, Hepes 15 mM, penicillin 50 U/ml (units/ml) en streptomycin 50 μg/ml. Cells were grown to near confluency.
(§2) The screening was performed using a modification of the assay as described in Citron et al (1997) Nature Medicine 3: 67. Briefly, cells were plated in a 384-well plate at 10^4 cells/well in Ultraculture (Lonza, BE12-725F) supplemented with 1% glutamine (Invitrogen, 25030-024), 1% non-essential amino acid (NEAA), penicillin 50 U/ml en streptomycin 50 μg/ml in the presence of test compound at different test concentrations. The cell/compound mixture was incubated overnight at 37° C., 5% CO2. The next day the media were assayed by two sandwich immuno-assays, for Aβ42 and Aβtotal.
(§3) Aβtotal and Aβ42 concentrations were quantified in the cell supernatant using the Aphalisa technology (Perkin Elmer). Alphalisa is a sandwich assay using biotinylated antibody attached to streptavidin coated donorbeads and antibody conjugated to acceptor beads. In the presence of antigen, the beads come into close proximity. The excitation of the donor beads provokes the release of singlet oxygen molecules that trigger a cascade of energy transfer in the acceptor beads, resulting in light emission. To quantify the amount of Aβ42 in the cell supernatant, monoclonal antibody specific to the C-terminus of Aβ42 (JRF/cAβ42/26) was coupled to the receptor beads and biotinylated antibody specific to the N-terminus of Aβ (JRF/AβN/25) was used to react with the donor beads. To quantify the amount of Aβtotal in the cell supernatant, monoclonal antibody specific to the N-terminus of Aβ (JRF/AβN/25) was coupled to the receptor beads and biotinylated antibody specific to the mid region of Aβ (biotinylated 4G8) was used to react with the donor beads.
(§4) To obtain the values reported in Table 7c, the data were calculated as percentage of the maximum amount of amyloid Beta 42 measured in the absence of the test compound. The sigmoidal dose response curves were analyzed using non-linear regression analysis with percentage of the control plotted against the log concentration of the compound. A 4-parameter equation was used to determine the IC50.

Aβtotal [2] = test: Method 1: Aβtotal sandwich ELISA in supernatant of SKNBE2 cells carrying APP 695-wild type (Tables 7a, 7b)
Method in brief: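 SKNBE2 cells expressing wild-type APP695 were exposed to compound for 18 Hours in Ultraculture with 1% glutamine. Aβtotal in the supernatant was read by 6E10-capture/biotinylated 4G8 sandwich ELISA with a fluorogenic peroxidase read-out, and WST-1 checked toxicity. IC50 came from a 4-parameter fit of percent inhibition or percent of control versus concentration.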

Aβ42 [3] = test: Method 1: Aβ42 sandwich ELISA in supernatant of SKNBE2 cells carrying APP 695-wild type (Tables 7a, 7b)
Method in brief: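 IC50 values were derived with a 4-parameter equation, fitting either percent inhibition or percent of compound-free Aβ42 as the control. The Aβ42 came from supernatants of APP695 wild-type SKNBE2 cells treated for 18 hours. It was measured by ELISA with anti-Aβ42 capture, biotinylated 3D6 and TMB absorbance at 450 nm.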

Aβtotal [4] = test: Method 2: Aβtotal Alphalisa in supernatant of SKNBE2 cells carrying APP 695-wild type (Table 7c); conditions: Method 2, Alphalisa, overnight incubation
Procedure: as §1, §2, §3, §4

[5] = Table 7b, averaged IC50, non-linear regression of percentage of control vs log concentration, 4-parameter equation
[6] = Table 7a, SKNBE2 cells, compounds 18 h, XLfit 4-parameter fit of percent inhibition, top/bottom fixed to 100/0, hill slope 1

Row | IC50 (Aβ42 [1]) | IC50 (Aβtotal [2]; [5]) | IC50 (Aβ42 [3]; [5]) | IC50 (Aβtotal [4]) | IC50 (Aβtotal [2]; [6]) | IC50 (Aβ42 [3]; [6]) | IC50 (Aβ42 [1]; Homo sapiens) | IC50 (Aβtotal [4]; Homo sapiens) | Structure (SMILES)
1 | 10 nM | > 3000 nM | 5 nM | > 10000 nM | – | – | – | – | COc1cc(Nc2cc(C(C)C)nc3c2nc(-c2ccc(F)cc2)n3C)ccc1-c1cnc(C)o1 [Compound 190]
2 | 117 nM | > 3000 nM | 83 nM | > 10000 nM | – | – | – | – | Cc1ncoc1-c1ccc(Nc2cccc3c2nc(-c2ccc(F)cc2)n3C(C)C)cc1F [Compound 65]
3 | 58 nM | > 10000 nM | 66 nM | 8910 nM | – | – | – | – | Cc1ncc(-c2ccc(Nc3cccc4c3nc(C3(c5ccc(Cl)cc5)CC3)n4C)cn2)o1 [Compound 88]
4 | 214 nM | – | 89 nM | > 10000 nM | > 3000 nM | 90 nM | – | – | Cc1ncoc1-c1ccc(Nc2cccc3c2nc(-c2ccc(F)cc2)n3C)cn1 [Compound 35]
5 | 25 nM | > 3000 nM | 18 nM | > 10000 nM | – | – | – | – | Cc1ncc(-c2ccc(Nc3cc(F)cc4c3nc(-c3ccccc3Cl)n4C)cn2)o1 [Compound 107]
6 | 288 nM | > 10000 nM | 251 nM | 9120 nM | – | – | – | – | Cc1ncc(-c2ccc(Nc3cccc4c3nc(C(C)c3ccc(Cl)cc3)n4C)cn2)o1 (racemic) [Compound 87]
7 | 22 nM | > 3000 nM | 10 nM | > 10000 nM | – | – | – | – | COCCc1c(-c2ccc(F)cc2)nc2c(Nc3ccc(-c4cnc(C)o4)c(OC)c3)cccn12 [Compound 174]
8 | 76 nM | > 3000 nM | 28 nM | > 10000 nM | – | – | – | – | Cc1nc(C)c(-c2ccc(Nc3cc(F)cc4c3nc(-c3ccccc3Cl)n4C)cn2)o1 [Compound 79]
9 | 191 nM | > 30000 nM | 871 nM | > 10000 nM | – | – | – | – | Cc1ncc(-c2ccc(Nc3nccc4c3nc(-c3ccc(F)cc3)n4C(C)C)cc2)o1 [Compound 26]
10 | 49 nM | > 3000 nM | 37 nM | > 10000 nM | – | – | – | – | Cc1nc(C)c(-c2ccc(Nc3cccc4c3nc(-c3ccc(F)cc3)n4C(C)C)cn2)o1 [Compound 82]
11 | 72 nM | > 3000 nM | 20 nM | > 10000 nM | > 3000 nM | 38 nM | – | – | Cc1ncc(-c2ccc(Nc3cccn4cc(-c5cc(C(F)(F)F)ccc5C)nc34)cc2)o1 [Compound 50]
12 | 52 nM | > 3000 nM | 19 nM | > 10000 nM | – | – | – | – | Cc1ncc(-c2ccc(Nc3cc(C#N)cc4c3nc(-c3ccc(F)cc3)n4C)cn2)o1 [Compound 86]
13 | 18 nM | > 3000 nM | 21 nM | > 10000 nM | – | – | – | – | Cc1ncc(-c2ccc(Nc3cccn4c(C)c(-c5ccccc5C(F)(F)F)nc34)cn2)o1 [Compound 167]
14 | 7 nM | > 3000 nM | 9 nM | > 10000 nM | – | – | – | – | Cc1ncc(-c2ccc(Nc3cccn4c(C)c(-c5ccccc5Cl)nc34)cn2)o1 [Compound 173]
15 | – | – | – | – | – | – | > 10000 nM | > 10000 nM | Cc1ncc(-c2cnc(Nc3cccc4c3nc(-c3ccc(F)cc3)n4C)nc2)o1 [Compound 188]
16 | 2750 nM | – | 1860 nM | > 10000 nM | – | – | – | – | COc1cc(Nc2cccc3c2nc(C2CCOCC2)n3C(C)C)ccc1-c1cnc(C)o1 [Compound 93]
17 | 661 nM | > 3000 nM | 2090 nM | > 10000 nM | – | – | – | – | Cc1cn2cccc(Nc3ccc(-c4cnc(C)o4)nc3)c2n1 [Compound 172]
18 | 191 nM | – | – | > 10000 nM | – | – | – | – | Cc1cc(-c2ccc(Nc3cccc4c3nc(-c3ccc(F)cc3)n4C)cc2F)ccn1 [Compound 133]
19 | > 10000 nM | – | > 3000 nM | > 10000 nM | – | – | – | – | Cc1ncc(-c2ccc(Nc3nccc4c3nc(CC3CC3)n4C)cc2F)o1 [Compound 66]
20 | 17 nM | – | – | 5250 nM | – | – | – | – | COc1nc(Nc2cccc3c2nc(-c2ccc(F)cc2)n3C)ccc1-c1ccnc(C)c1 [Compound 129]

Row | IC50 (Aβ42 [1]) | IC50 (Aβtotal [2]; [5]) | IC50 (Aβ42 [3]; [5]) | IC50 (Aβtotal [4]) | IC50 (Aβtotal [2]; [6]) | IC50 (Aβ42 [3]; [6]) | IC50 (Aβ42 [1]; Homo sapiens) | IC50 (Aβtotal [4]; Homo sapiens) | Structure (SMILES)
21 | 363 nM | > 3000 nM | 66 nM | > 10000 nM | – | – | – | – | Cc1ncc(-c2ccc(Nc3nccc4c3nc(-c3ccccc3Cl)n4C)cn2)o1 [Compound 85]
22 | 759 nM | – | – | > 10000 nM | – | – | – | – | Cc1cc(-c2ccc(Nc3cccc4c3nc(-c3ccc(F)cc3)n4C(C)C)cc2)cc(C)n1 [Compound 140]
23 | 195 nM | – | 33 nM | > 10000 nM | – | – | – | – | COc1cc(Nc2nc(C)cc3c2nc(-c2ccc(F)cc2)n3C)ccc1-c1ocnc1C [Compound 125]
24 | 62 nM | – | – | > 10000 nM | – | – | – | – | Cc1ncc(-c2ccc(Nc3ccnc4c3nc(-c3ccc(F)cc3)n4C)cc2F)o1 [Compound 187]
25 | 1050 nM | – | 166 nM | 6310 nM | – | – | – | – | COc1cc(Nc2cc(C#N)cn3cc(C)nc23)ccc1-c1ocnc1C [Compound 145]
26 | 112 nM | – | – | > 10000 nM | – | – | – | – | Cc1cc(-c2ccc(Nc3nc(C)cc4c3nc(-c3ccc(F)cc3)n4C)cc2F)ccn1 [Compound 136]
27 | 7410 nM | – | – | 4470 nM | – | – | – | – | COc1cc(Nc2cccc3c2nc(-c2ccc(F)cc2)n3C)ccc1-c1cn(C)nn1 [Compound 74]
28 | 158 nM | > 10000 nM | 245 nM | > 10000 nM | – | – | – | – | COc1cc(Nc2cc(F)cn3cc(C4CCOCC4)nc23)ccc1-c1ocnc1C [Compound 163]
29 | 1180 nM | – | – | 6760 nM | – | – | – | – | Cc1ccc(F)cc1-c1cn2nc(Cl)cc(Nc3ccc(-c4ocnc4C)nc3)c2n1 [Compound 198]
30 | 245 nM | > 3000 nM | 135 nM | 8510 nM | – | – | – | – | COc1cc(Nc2cc(C#N)cn3cc(CC(C)C)nc23)ccc1-c1ocnc1C [Compound 202]
31 | 12 nM | – | – | > 10000 nM | – | – | – | – | Cc1ncc(-c2ccc(Nc3cc(C(C)C)nc4c3nc(-c3ccc(F)cc3)n4C)cn2)o1 [Compound 191]
32 | 1320 nM | 9330 nM | 1410 nM | 6760 nM | – | – | – | – | Cc1ncoc1-c1ccc(Nc2cccn3cc(CC4CCOCC4)nc23)cn1 [Compound 164]
33 | 2400 nM | – | – | > 10000 nM | – | – | – | – | COc1cc(Nc2cc(C#N)nc3c2nc(-c2ccc(F)cc2)n3C)ccc1-c1cnc(C)o1 [Compound 189]
34 | 204 nM | > 10000 nM | 339 nM | > 10000 nM | – | – | – | – | Cc1cc2c(nc(-c3cccc(Cl)c3)n2C)c(Nc2ccc(-c3ocnc3C)nc2)n1 [Compound 111]
35 | 51 nM | – | – | > 10000 nM | – | – | – | – | COCc1c(-c2ccc(F)cc2)nc2c(Nc3ccc(-c4cnc(C)o4)c(OC)c3)cccn12 [Compound 168]
36 | 60 nM | – | – | 6610 nM | – | – | – | – | COc1cc(Nc2cccc3c2nc(-c2ccc(F)cc2)n3C)ccc1-c1ccnc(C)c1 [Compound 139]
37 | 18 nM | – | – | > 10000 nM | – | – | – | – | COc1nc(Nc2cccc3c2nc(-c2ccc(F)cc2)n3C)ccc1-c1cnn(C)c1 [Compound 68]
38 | 162 nM | – | – | 7760 nM | – | – | – | – | Cc1cc(-c2ccc(Nc3cccn4c(C)c(-c5ccccc5Cl)nc34)cc2F)ccn1 [Compound 182]
39 | 40 nM | > 3000 nM | 20 nM | > 10000 nM | > 3000 nM | 21 nM | – | – | Cc1ncc(-c2ccc(Nc3cccn4c(C)c(-c5ccccc5Cl)nc34)cc2)o1 [Compound 49]
40 | 38 nM | > 3000 nM | 20 nM | > 10000 nM | – | – | – | – | Cc1ncc(-c2ccc(Nc3cc(F)cn4cc(-c5ccc(F)cc5C)nc34)cn2)o1 [Compound 171]
